Assay results as given in ChEMBL document CHEMBL1133707, “Heteroarylmethoxyphenylalkoxyiminoalkylcarboxylic acids as leukotriene biosynthesis inhibitors” (J Med Chem, 2000).

Experiments:
[1] = biological target: T1, Polyunsaturated fatty acid 5-lipoxygenase (Homo sapiens) (UniProt P09917); assay: Inhibition of Calcium Ionophore (A-23187)-stimulated LTB4 formation in Human Neutrophil assay at 100 uM.; type: functional
T1 sequence (whole entry): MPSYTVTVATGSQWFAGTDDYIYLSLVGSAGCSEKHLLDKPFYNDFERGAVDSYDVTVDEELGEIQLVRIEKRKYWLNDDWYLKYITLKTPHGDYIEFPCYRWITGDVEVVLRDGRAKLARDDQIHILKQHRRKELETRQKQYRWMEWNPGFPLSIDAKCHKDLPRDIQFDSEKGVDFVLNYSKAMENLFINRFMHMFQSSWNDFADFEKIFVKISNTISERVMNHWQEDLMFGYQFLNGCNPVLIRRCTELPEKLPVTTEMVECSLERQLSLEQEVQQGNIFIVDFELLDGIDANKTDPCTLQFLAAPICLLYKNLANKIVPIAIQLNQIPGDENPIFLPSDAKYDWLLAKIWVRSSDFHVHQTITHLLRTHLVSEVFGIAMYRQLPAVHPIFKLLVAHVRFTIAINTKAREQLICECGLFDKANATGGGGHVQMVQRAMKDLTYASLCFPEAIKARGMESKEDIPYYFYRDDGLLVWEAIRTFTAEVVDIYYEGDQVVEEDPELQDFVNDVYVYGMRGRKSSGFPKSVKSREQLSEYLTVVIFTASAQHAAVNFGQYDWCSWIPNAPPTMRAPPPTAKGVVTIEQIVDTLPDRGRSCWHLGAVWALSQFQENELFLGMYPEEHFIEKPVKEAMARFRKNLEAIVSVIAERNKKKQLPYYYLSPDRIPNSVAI

Rattus norvegicus [2] = assay: Percent inhibition was determined for in vivo ionophore induced rat pleurisy at a dose of 3 mg/kg; type: functional
Rattus norvegicus [3] = assay: In vivo inhibition of ionophore induced rat pleurisy.; type: functional
Homo sapiens [4] = species: Homo sapiens; assay: Inhibition of Calcium Ionophore (A-23187)-stimulated LTB4 formation in Human whole blood assay at a concentration of 12.5 nM; type: functional
[5] = half life was determined in plasma of dog; type: ADME, organism-based, Canis lupus familiaris
Homo sapiens [6] = species: Homo sapiens; assay: Inhibition of Calcium Ionophore (A-23187)-stimulated LTB4 formation in Human whole blood assay.; type: functional
[7] = half life was determined in plasma of monkey; type: ADME; conditions: simiiformes
Rattus norvegicus [8] = assay: Effective dose was determined in in vivo which inhibits 50% of the mean value in rat anaphylaxis.; type: functional
Rattus norvegicus [9] = assay: Percent inhibition was determined for in vivo ionophore induced rat pleurisy at a dose of 0.3 mg/kg
Rattus norvegicus [10] = assay: Effective dose was determined for in vivo ionophore induced rat pleurisy.; type: functional
Rattus norvegicus [11] = assay: Percent inhibition was determined for in vivo ionophore induced rat pleurisy at a dose of 10 mg/kg
[12] = half life was determined in plasma of rat; type: ADME, organism-based
[13] = biological target: T1, Polyunsaturated fatty acid 5-lipoxygenase (Homo sapiens); assay: Inhibition of Calcium Ionophore (A-23187)-stimulated LTB4 formation in Human Neutrophil assay at 100 nM.

## COc1cc(OCc2ccc3ccccc3n2)ccc1C(O/N=C(\C)C(=O)O)C1CCCCC1 (configuration not stated)
[1]
  inhibition: 98%
Rattus norvegicus [2]
  I: 32%

## CC(C)(C)Sc1c(CC(C)(C)C(=O)[O-])n(Cc2ccc(Cl)cc2)c2ccc(OCc3ccc4ccccc4n3)cc12.[Na+] [QUIFLAPON SODIUM]
Rattus norvegicus [3]
  ED50: 1.6 mg/kg

## O=C(O)/C=N/OC(c1ccc(OCc2ccc3ccccc3n2)cc1)C1C2CC3CC(C2)CC1C3 (configuration not stated)
Rattus norvegicus [3]
  ED50: 1.2 mg/kg

## O=C(O)/C=N/OC(c1ccc(OCc2ccc3ccccc3n2)c(F)c1)C1CCCCC1 (configuration not stated)
[1]
  inhibition: 97%

## O=C(O)/C=N/OC(c1ccc(OCc2nc3cc(F)ccc3s2)cc1Cl)C1CCCCC1 (configuration not stated)
Rattus norvegicus [3]
  ED50: 1.7 mg/kg

## CCCCCCCCC(O/N=C(\C)C(=O)O)c1ccc(OCc2ccc3ccccc3n2)cc1 (configuration not stated)
[1]
  inhibition: 92%
Rattus norvegicus [2]
  I: 27%

## O=C(O)[C@@H](c1ccc(OCc2ccc3ccccc3n2)cc1)C1CCCC1 [VELIFLAPON]
Rattus norvegicus [3]
  ED50: 4 mg/kg

## C/C(=N/OC(c1ccc(OCc2ccc3ccccc3n2)cc1)C1CCCCC1)C(=O)O (configuration not stated)
Homo sapiens [4]
  Inhibition: 59%

## O=C(O)/C=N/OC(c1ccc(OCc2ccc3ccccc3n2)cc1)C1CCCCC1 (configuration not stated)
Rattus norvegicus [3]
  ED50: 2.5 mg/kg

## COc1ccc(C(O/N=C(\C)C(=O)O)c2ccc(OCc3ccc4ccccc4n3)cc2)cc1 (configuration not stated)
[1]
  inhibition: 58%
Rattus norvegicus [2]
  I: 20%

## C/C(=N\OC(c1ccc(OCc2ccc3ccccc3n2)c(Cl)c1)C1CCCCC1)C(=O)O (configuration not stated)
Rattus norvegicus [3]
  ED50: 1.2 mg/kg

## C/C(=N\OC(c1ccc(OCc2ccc3ccccc3n2)cc1)C1CCCCC1)C(=O)O (configuration not stated) [listing 1 of 2 here]
[5]
  half-life: 5.6 h
Homo sapiens [6]
  IC50: 1800 nM
Rattus norvegicus [3]
  ED50: 0.5 mg/kg
[7]
  half-life: 1.5 h
Rattus norvegicus [8]
  ED50: 1.2 mg/kg

## C/C(=N/OC(CCc1ccc(OCc2ccc3ccccc3n2)cc1)C1CCCCC1)C(=O)O (configuration not stated)
[1]
  inhibition: 51%
Rattus norvegicus [2]
  I: 6%

## C/C(=N\OC(c1ccc(OCc2cc(-c3ccccc3)on2)cc1)C1CCCCC1)C(=O)O (configuration not stated)
[1]
  inhibition: 61%
Rattus norvegicus [2]
  I: 0%

## O=C(O)/C=N/OC(c1ccc(OCc2nc3ccccc3s2)cc1Br)C1CCCCC1 (configuration not stated)
Rattus norvegicus [3]
  ED50: 1 mg/kg

## C/C(=N\O[C@@H](c1ccc(OCc2ccc3ccccc3n2)cc1)C1CCCCC1)C(=O)O
[5]
  half-life: 4.5 h
Rattus norvegicus [2]
  I: 29%
Homo sapiens [6]; Homo sapiens, Blood
  Inhibition: 63%
[7]
  half-life: 3.8 h

## C/C(=N\OC(c1ccc(OCc2ccc3cc(F)ccc3n2)cc1)C1CCCCC1)C(=O)O (configuration not stated)
Rattus norvegicus [3]
  ED50: 0.4 mg/kg

## C/C(=N\OC(c1ccc(OCc2ccc3ccccc3n2)cc1)C1CCCCC1)C(=O)[O-].[Na+] (configuration not stated)
Rattus norvegicus [9]
  I: 74%
Homo sapiens [6]
  Inhibition: 72%

## CC(C)(CC(O/N=C/C(=O)O)c1ccc(OCc2ccc3ccccc3n2)cc1)c1ccccc1 (configuration not stated)
Rattus norvegicus [10]
  ED50: 4 mg/kg

## O=C(O)c1ccc(O)c(/C=N/OC(c2ccc(OCc3ccc4ccccc4n3)cc2)C2CCCCC2)c1 (configuration not stated)
[1]
  inhibition: 95%
Rattus norvegicus [2]
  I: 35%

## O=C(O)/C=C/c1ccc(/C=N/OC(c2ccc(OCc3ccc4ccccc4n3)cc2)C2CCCCC2)cc1 (configuration not stated)
[1]
  inhibition: 48%
Rattus norvegicus [2]
  I: 0%

## C/C(CCC(=O)O)=N\OC(c1ccc(OCc2ccc3ccccc3n2)cc1)C1CCCCC1 (configuration not stated)
Rattus norvegicus [3]
  ED50: 1 mg/kg

## C/C(=N\OC(c1ccc(OCc2cccc(Cl)n2)cc1)C1CCCCC1)C(=O)O (configuration not stated)
[1]
  inhibition: 7%

## O=C(O)/C=N/OC(c1ccc(-c2ccc(OCc3ccc4ccccc4n3)cc2)cc1)C1CCCCC1 (configuration not stated)
[1]
  inhibition: 55%
Rattus norvegicus [2]
  I: 10%

## O=C(O)/C=N/OCC(c1ccc(OCc2ccc3ccccc3n2)cc1)C1CCCCC1 (configuration not stated)
Rattus norvegicus [11]
  I: 73%

## C/C(=N\OC(CC(C)(C)c1ccccc1)c1ccc(OCc2ccc3ccccc3n2)cc1)C(=O)O (configuration not stated)
Rattus norvegicus [3]
  ED50: 2 mg/kg

## C/C(=N\OC(c1ccc(OCc2ccc3ccccc3n2)cc1)c1cccnc1)C(=O)O (configuration not stated)
[1]
  inhibition: 20%

## C/C(=N\OC(c1ccc(OCc2ccc3ccccc3n2)cc1)C1CCCCCC1)C(=O)O (configuration not stated)
Rattus norvegicus [3]
  ED50: 0.7 mg/kg

## CC(c1cc2ccccc2s1)N(O)C(N)=O (configuration not stated) [ZILEUTON]
Rattus norvegicus [3]
  ED50: 6 mg/kg

## CCCCCCCCCCCCC(O/N=C/C(=O)O)c1ccc(OCc2ccc3ccccc3n2)cc1 (configuration not stated)
[1]
  inhibition: 54%

## CC(=NOC(c1ccc(OCc2ccc3ccccc3n2)cc1)C1CCCCC1)C(=O)O (configuration not stated)
[5]
  half-life: 2 h
Rattus norvegicus [2]
  I: 89%
[12]
  half-life: 1 h
Homo sapiens [6]; Homo sapiens, Blood
  IC50: 2100 nM
[7]
  half-life: 5.4 h
Rattus norvegicus [8]
  ED50: 1.2 mg/kg

## C/C(=N\OC(c1ccc(OCc2ccc3ccccc3n2)cc1)C1C2CC3CC(C2)CC1C3)C(=O)O (configuration not stated)
Rattus norvegicus [3]
  ED50: 0.6 mg/kg

## CCCCCCCC(O/N=C/C(=O)O)c1ccc(OCc2ccc3ccccc3n2)cc1 (configuration not stated)
[1]
  inhibition: 100%
Rattus norvegicus [2]
  I: 0%

## C/C(=N\OC(CCCc1ccc(F)cc1)c1ccc(OCc2ccc3ccccc3n2)cc1)C(=O)O (configuration not stated)
Rattus norvegicus [3]
  ED50: 2.6 mg/kg

## C/C(=N\O[C@H](c1ccc(OCc2ccc3ccccc3n2)cc1)C1CCCCC1)C(=O)O
[5]
  half-life: 4.6 h
[12]
  half-life: 11.8 h
Rattus norvegicus [9]
  I: 43%
Homo sapiens [6]
  IC50: 840 nM
[7]
  half-life: 4 h

## O=C(O)/C=N/OC(c1nc(OCc2ccc3ccccc3n2)c(-c2ccccc2)s1)C1CCCCC1 (configuration not stated)
[1]
  inhibition: 2%

## C/C(CC(=O)O)=N\OC(c1ccc(OCc2ccc3ccccc3n2)cc1)C1CCCCC1 (configuration not stated)
Rattus norvegicus [2]
  I: 68%
[13]
  inhibition: 40%

## C/C(=N\O[C@H](c1ccc(OCc2ccc3ccccc3n2)cc1)C1CCCCC1)C(=O)[O-].[Na+]
[5]
  half-life: 5.6 h
[12]
  half-life: 10.3 h
Homo sapiens [6]; Homo sapiens, Blood
  IC50: 720 nM
Rattus norvegicus [3]
  ED50: 0.14 mg/kg
[7]
  half-life: 1.6 h
Rattus norvegicus [8]
  ED50: 0.13 mg/kg

## C/C(=N\OC(c1ccc(OCc2nc3ccccc3s2)cc1Cl)C1CCCCC1)C(=O)O (configuration not stated)
Rattus norvegicus [3]
  ED50: 2.6 mg/kg

## CC(/C=C/C(=O)O)=N\OC(c1ccc(OCc2ccc3ccccc3n2)cc1)C1CCCCC1 (configuration not stated)
Rattus norvegicus [3]
  ED50: 2 mg/kg

## O=C(O)CSC(CCCc1ccc(Cl)cc1)c1ccc(OCc2ccc3ccccc3n2)cc1 (configuration not stated)
Rattus norvegicus [3]
  ED50: 1.6 mg/kg

## CC(C)(C)SC/C(=N\OC(c1ccc(OCc2ccc3ccccc3n2)cc1)C1CCCCC1)C(=O)O (configuration not stated)
Rattus norvegicus [10]
  I: 47%

## C/C(CCCC(=O)O)=N\OC(c1ccc(OCc2ccc3ccccc3n2)cc1)C1CCCCC1 (configuration not stated)
Rattus norvegicus [3]
  ED50: 3 mg/kg

## CCCCCCCC(O/N=C(\C)C(=O)O)c1ccc(OCc2ccc3ccccc3n2)cc1 (configuration not stated)
[1]
  inhibition: 96%

## O=C(O)/C=N/OC(c1ccc(OCc2nc3ccccc3s2)cc1)C1CCCCC1 (configuration not stated)
Rattus norvegicus [3]
  ED50: 3 mg/kg

## CCCCC(O/N=C(\C)C(=O)O)c1ccc(OCc2ccc3ccccc3n2)cc1 (configuration not stated)
[1]
  inhibition: 45%

## C/C(=N\OC(c1ccc(OCc2nc(-c3ccc(C(C)C)cc3)cs2)cc1)C1CCCCC1)C(=O)O (configuration not stated)
[1]
  inhibition: 57%
Rattus norvegicus [2]
  I: 17%

## C/C(=N\OC(c1ccc(OCc2ccc3ccccc3n2)cc1Cl)C1CCCCC1)C(=O)O (configuration not stated)
Rattus norvegicus [10]
  ED50: 0.8 mg/kg

## C/C(=N\OC(c1ccc(OCc2ccc3ccccc3n2)cc1)C1CCCCC1)C(=O)O (configuration not stated) [listing 2 of 2 here]
[1]
  inhibition: 95%
